Measurements: patent EP4737449A1 (Changchun Genescience Pharmaceutical Co., Ltd., priority 2023, dated 2025)

Experiments:
[1] = Caco-2 cell permeability test; type: in vitro ADME; settings: human, Caco-2, 10 µM compound; for Papp A→B at 120 min, 10 µM / Papp B→A at 120 min, 10 µM / efflux ratio at 120 min, 10 µM: pH 7.4; for efflux ratio at 120 min, 10 µM: read-out: Efflux rate
Experimental: • 1) Cell culture: The resuscitated Caco-2 cells were cultured in DMEM culture solution containing 10% FBS, 1% Penicillin-Streptomycin Liquid (100X) and 1% NEAA in an incubator at 37 °C with 5% CO2. The culture medium was replaced every 2-3 days and subculture was carried out when the cell confluence reached about 80%. • 2) Preparation of transport buffer: Transport buffer (pH 7.4) was prepared by adding 5 mL of 1M HEPES to 500 mL of HBSS (with or without BSA) to a final concentration of 10 mM HEPES (with or without BSA). • 3) Before the start of the transport experiment (day 14-28), the culture medium was taken out from the cell culture plate, the plate was washed twice with preheated HBSS buffer (10 mM HEPES, pH 7.4), and 100 µL of HBSS buffer was added into each well. After incubation at 37°C for 30 min, the TEER values were measured by a cell resistance meter (Millicell-ERS2) to confirm the integrity and compactness of the monolayer cells. • 4) The HBSS buffer was discarded, the upper plate containing the cell monolayer membrane was transferred to the corresponding receiving plate, the test compound solution or buffer was added to the top (A side) and the basal side (B side), respectively, the cell plate was placed in the corresponding 96-well receiving plate, and grouping was carried out according to Table 6. The prepared positive control drug, test compound or HBSS (with or without BSA) buffer were added to the A side or B side of the Transwell cell plate filter membrane, and the cell plate was incubated at 37°C. Table 6. Compound grouping scheme
• 1) After incubation for 5 min, a sample was taken from the A and B administration sides, 8 µL each side, and added into 72 µL of transport buffer (diluted 10 times) to serve as T0 of the initial administration solution. • 2) After incubation for 120 min, the samples from both ends of the Transwell cell plate filter membrane were collected, and 80 µL of sample solution was taken from the receiving side to serve as the sample at the receiving side after transport, and 8 µL of sample was taken from the administration side and added into 72 µL of transport buffer to serve as the sample at the administration side after transport. • 3) After collecting the samples from both sides, the plate was gently tapped to discard the remaining solution in the cell plate, the cell plate was rinsed with the transport buffer, 100 µL of acetonitrile solution containing internal standard working solution was added to each well to lyse the cells, the system was pipetted up and down to well mix it, and then 80 µL of cell lysate from each well was measured by pipetting to serve as the sample after cell lysis. • 4) After collecting all samples in the transport system (T0 sample, receiving side sample, and donor side sample), 160 µL of IS/ACN solution was added to each well, 80 µL of IS/ACN solution was added to the collected lysate sample, and then the sample was sealed. • 5) The sample plate was shaken for 10 min, and stored at -20°C before LC-MS/MS analysis. • 6) A standard curve was plotted, and then 8 µL of standard curve solution was taken and mixed with 72 µL of transport buffer and 160 µL of IS/ACN to serve as the standard curve sample. • 7) All the above samples were centrifuged at 6000 RPM for 10 min, 100 µL of supernatant was taken, 100 µL of H2O was added, and the mixture was fully mixed, and analyzed by LC-MS/MS.

PXR = biological target: T1, PXR (Homo sapiens, UniProt O75469); assay: PXR activity test in DPX2 cells (luciferase); type: cell-based; settings: for Activation fold: DPX2 cells, 24 h; for Percentage relative to positive control: positive control rifampicin
T1 construct: expressed in transfected cells; host or cells: DPX2 cells
T1 sequence (O75469 1-434): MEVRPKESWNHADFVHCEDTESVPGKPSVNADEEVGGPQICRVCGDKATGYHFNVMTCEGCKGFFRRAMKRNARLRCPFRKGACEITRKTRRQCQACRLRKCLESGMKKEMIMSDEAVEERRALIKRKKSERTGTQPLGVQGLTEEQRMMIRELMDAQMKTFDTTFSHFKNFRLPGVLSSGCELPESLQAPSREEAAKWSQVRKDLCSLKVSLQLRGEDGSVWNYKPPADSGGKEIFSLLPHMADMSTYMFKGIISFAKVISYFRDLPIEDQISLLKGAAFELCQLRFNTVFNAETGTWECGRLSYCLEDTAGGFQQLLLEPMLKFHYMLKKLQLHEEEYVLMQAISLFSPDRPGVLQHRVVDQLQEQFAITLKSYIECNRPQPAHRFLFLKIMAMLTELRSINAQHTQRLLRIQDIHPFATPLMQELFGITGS
Experimental: The cells were digested when they covered 80-90% of the bottom of the flask. • 3) The surface of the T-75 cultured cells was washed with 10 mL of PBS, PBS was removed by pipetting, 3-5 mL of trypsin was added, the cells were digested at 37°C for 5 min or until the cells were completely digested and in a suspended state, and excessive culture medium containing fetal bovine serum was added to terminate trypsin digestion. • 4) The cell suspension was transferred to a conical-bottom centrifuge tube and centrifuged at 150 g for 5 min at room temperature. The supernatant was carefully removed by pipetting and the cells were re-suspended in treatment medium to have a concentration of 3.2×10^5 cells/mL (incubation time 24 h, plate seeding density […]). In a 384-well cell culture plate, 25 μL of cell suspension was added to each well. The cell plate was placed in an incubator at 95% humidity, 37°C, and 5% CO2 for 24 h. […] The cell plates were placed in an incubator and further incubated for 24 h. • 3) Before starting experiments with the substrate, cell morphology and monolayer integrity were checked to ensure the monolayer is of acceptable quality for studies. […] GF-AFC substrate (10 μL) was added to Assay Buffer (10 ml) to form 2X reagent, which was then diluted into 1X reagent with 10 mL of PBS. ONE-Glo Luciferase substrate was added to ONE-Glo Luciferase Assay Buffer. • 3) The culture plate was taken out of the incubator, the culture medium was discarded, 1X CellTiter-Fluor^TM reagent was poured into the sample loading slot, 25 μL of reagent was added to each well of the culture plate using a pipetting workstation, and then the plate was placed in the incubator for incubation for 30 min. • 4) The cell culture plate was taken out from the incubator, cooled slightly to room temperature, and the fluorescence value was measured by automatic quantitative microplate reader. […] The activation fold of mRNA is calculated using the following formula: Fold activation = (RLUtest/RFUtest)/(RLUvehicle/RFUvehicle) [formula] 2) The percentage of cell viability of the compound is calculated as follows: Cell Viability % = (RFUtest/RFUvehicle) × 100 [formula] 3) The percentage relative to the positive control is calculated according to the following formula: Percent of positive control(%) = (Foldactivationtest/[…]:?}

[2] = Concentration 1 (µM per method)
[3] = Concentration 10 (µM per method)

SMILES | Papp A→B at 120 min, 10 µM ([1]; 120 min) [nm/s] | Papp B→A at 120 min, 10 µM ([1]; 120 min) [nm/s] | efflux ratio at 120 min, 10 µM [1] | Activation fold (PXR; [2]) | Percentage relative to positive control (PXR; [2]) [%] | Activation fold (PXR; [3]) | Percentage relative to positive control (PXR; [3]) [%] | Papp A→B at 2 h ([1]; 120 min) [nm/s] | Papp B→A at 2 h ([1]; 120 min) [nm/s]
CN1CC[C@@H](Nc2cccc3c(CC(F)(F)F)c(C#CCNC(=O)c4cnn(C(C)(C)C)c4)nn23)[C@@H](F)C1 [Compound 001, 1-tert-butyl-N-[3-(7-{[(3S,4R)-3-fluoro-1-methylpiperidin-4-yl]amino}-3-(2,2,2-trifluoroethyl)pyrazolo[1,5-a]pyridin-2-yl)prop-2-yn-1-yl]-1H-pyrazole-4-carboxamide] | 43.9 | 65 | 1.48 | 1.41 | 8.07 | 3.05 | 17.50 |  | 
CN1CC[C@@H](Nc2cccc3c(CC(F)(F)F)c(C#CCNC(=O)c4cnn(C(C)(C)C)c4N)nn23)[C@@H](F)C1 [Compound 047] |  |  | 1.51 | 1.12 | 5.67 | 2.66 | 13.47 | 51.8 | 78
CCn1ncc(C(=O)NCC#Cc2nn3c(N[C@@H]4CCN(C)C[C@@H]4F)cccc3c2CC(F)(F)F)c1N [Compound 261, 5-amino-1-ethyl-N-[3-(7-{[(3S,4R)-3-fluoro-1-methylpiperidin-4-yl]amino}-3-(2,2,2-trifluoroethyl)pyrazolo[1,5-a]pyridin-2-yl)prop-2-yn-1-yl]-1H-pyrazole-4-carboxamide] |  |  |  | 0.89 | 4.48 | 1.43 | 7.20 |  | 
CNC(=O)c1ccc(NCC#Cc2cc3c(N[C@@H]4CCN(C)C[C@@H]4F)cccc3n2CC(F)(F)F)c(OC)c1 [Control compound, reference compound] | 46.8 | 194 | 4.16 | 1.40 | 8.61 | 8.58 | 52.82 |  | 
